Source: PubChem BioAssay AID1919004 (Molecular Pharmacology Branch, DTP, NCI, 2023)
“And” between values parts separate entries of the source, which are not always exact repeats. Identical values can stand only once.

Tested on: 883617-216-R-J1-PDC complex spheroids, growth, % test/control
Assay: Anticancer human tumor 883617-216-R-J1-PDC patient-derived bladder carcinoma cell line growth inhibition [AhR]
Details: for viability, T/C: stronger effect = lower value
Method in brief: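 Spheroids combined tumor cells with HUVEC endothelial cells and human MSCs as stroma. AhR antagonists were paired with standard or investigational drugs, each dosed in half-log steps down from near clinical Cmax, or from 10 microM where Cmax was unknown.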

[1] = curve of first compound, second compound 0.1 µM
[2] = curve of first compound, second compound 0.316 µM
[3] = curve of first compound, second compound 1 µM
[4] = curve of first compound, second compound 3.16 µM
[5] = curve of first compound, second compound 10 µM
[6] = second compound 0.1 µM, first compound 0.00949 µM
[7] = second compound 0.1 µM, first compound 0.03 µM
[8] = second compound 0.1 µM, first compound 0.0949 µM
[9] = second compound 0.1 µM, first compound 0.3 µM
[10] = second compound 0.316 µM, first compound 0.00949 µM
[11] = second compound 0.316 µM, first compound 0.03 µM
[12] = second compound 0.316 µM, first compound 0.0949 µM
[13] = second compound 0.316 µM, first compound 0.3 µM
[14] = second compound 1 µM, first compound 0.00949 µM
[15] = second compound 1 µM, first compound 0.03 µM
[16] = second compound 1 µM, first compound 0.0949 µM
[17] = second compound 1 µM, first compound 0.3 µM
[18] = second compound 3.16 µM, first compound 0.00949 µM
[19] = second compound 3.16 µM, first compound 0.03 µM
[20] = second compound 3.16 µM, first compound 0.0949 µM
[21] = second compound 3.16 µM, first compound 0.3 µM
[22] = second compound 10 µM, first compound 0.00949 µM
[23] = second compound 10 µM, first compound 0.03 µM
[24] = second compound 10 µM, first compound 0.0949 µM
[25] = second compound 10 µM, first compound 0.3 µM
[26] = second compound 0.1 µM, first compound 0.0316 µM
[27] = second compound 0.1 µM, first compound 0.1 µM
[28] = second compound 0.316 µM, first compound 0.0316 µM
[29] = second compound 0.316 µM, first compound 0.1 µM
[30] = second compound 1 µM, first compound 0.0316 µM
[31] = second compound 1 µM, first compound 0.1 µM
[32] = second compound 3.16 µM, first compound 0.0316 µM
[33] = second compound 3.16 µM, first compound 0.1 µM
[34] = second compound 10 µM, first compound 0.0316 µM
[35] = second compound 10 µM, first compound 0.1 µM
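Further: exposure lasted 7 days after dosing on day 3 of spheroid growth.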

For O=C(C=Cn1cnc(-c2cc(C(F)(F)F)cc(C(F)(F)F)c2)n1)NNc1cnccn1 + Cc1ccccc1N=Nc1ccc(NC(=O)c2ccnn2C)c(C)c1, the IC50 [1] was 443 nM, the IC50 [2] was 442 nM and the IC50 [3] was 535 nM. The IC50 [4] was 274 nM, the IC50 [5] was 268 nM and the viability, T/C [6] was 76.4%. It also gave a viability, T/C [7] of 79.8%, a viability, T/C [8] of 61.7% and a viability, T/C [9] of 54.5%. It also gave a viability, T/C (second compound 0.1 µM, first compound 0.949 µM) of 43.7%, a viability, T/C (second compound 0.1 µM, first compound 3 µM) of 34.4% and a viability, T/C [10] of 72%. It also gave a viability, T/C [11] of 62.8%, a viability, T/C [12] of 60.8% and a viability, T/C [13] of 49.8%. For the same molecule, the viability, T/C (second compound 0.316 µM, first compound 0.949 µM) was 48.6%, the viability, T/C (second compound 0.316 µM, first compound 3 µM) was 36.7% and the viability, T/C [14] was 70.5%. For the same molecule, the viability, T/C [15] was 66.9%, the viability, T/C [16] was 58% and the viability, T/C [17] was 44.7%. For the same molecule, the viability, T/C (second compound 1 µM, first compound 0.949 µM) was 57.1%, the viability, T/C (second compound 1 µM, first compound 3 µM) was 40.3% and the viability, T/C [18] was 64.1%. It also gave a viability, T/C [19] of 63.6%, a viability, T/C [20] of 56.2% and a viability, T/C [21] of 46.3%. It also gave a viability, T/C (second compound 3.16 µM, first compound 0.949 µM) of 44.5%, a viability, T/C (second compound 3.16 µM, first compound 3 µM) of 35.4% and a viability, T/C [22] of 65.5%. For the same molecule, the viability, T/C [23] was 59.7%, the viability, T/C [24] was 52.5% and the viability, T/C [25] was 51%. It also gave a viability, T/C (second compound 10 µM, first compound 0.949 µM) of 45.4% and a viability, T/C (second compound 10 µM, first compound 3 µM) of 39%.
Work on O=C(C=Cc1cccc(S(=O)(=O)Nc2ccccc2)c1)NO + CC(CO)NC(=O)c1cc(-c2ccc(Cl)cc2)nn(-c2cnn(C)c2)c1=O yielded an IC50 [1] of 3570 nM, an IC50 [2] of 3500 nM and an IC50 [3] of 793 nM. It also gave an IC50 [4] of 1510 nM, an IC50 [5] of 1820 nM and a viability, T/C [26] of 88.5%. The viability, T/C [27] was 96.9%, the viability, T/C (second compound 0.1 µM, first compound 0.316 µM) was 78.1% and the viability, T/C (second compound 0.1 µM, first compound 1 µM) was 86.6%. For the same molecule, the viability, T/C (second compound 0.1 µM, first compound 3.16 µM) was 55%, the viability, T/C (second compound 0.1 µM, first compound 10 µM) was 7.64% and the viability, T/C [28] was 95.2%. It also gave a viability, T/C [29] of 87.6%, a viability, T/C (second compound 0.316 µM, first compound 0.316 µM) of 85.7% and a viability, T/C (second compound 0.316 µM, first compound 1 µM) of 105%. It also gave a viability, T/C (second compound 0.316 µM, first compound 3.16 µM) of 54.7%, a viability, T/C (second compound 0.316 µM, first compound 10 µM) of 1.72% and a viability, T/C [30] of 75.3%. The viability, T/C [31] was 62.7%, the viability, T/C (second compound 1 µM, first compound 0.316 µM) was 113% and the viability, T/C (second compound 1 µM, first compound 1 µM) was 41.5%. The viability, T/C (second compound 1 µM, first compound 3.16 µM) was 41.6%, the viability, T/C (second compound 1 µM, first compound 10 µM) was 1.68% and the viability, T/C [32] was 104%. It also gave a viability, T/C [33] of 66%, a viability, T/C (second compound 3.16 µM, first compound 0.316 µM) of 67.6% and a viability, T/C (second compound 3.16 µM, first compound 1 µM) of 69.5%. It also gave a viability, T/C (second compound 3.16 µM, first compound 3.16 µM) of 36.6%, a viability, T/C (second compound 3.16 µM, first compound 10 µM) of 6.34% and a viability, T/C [34] of 101%. For the same molecule, the viability, T/C [35] was 89.5%, the viability, T/C (second compound 10 µM, first compound 0.316 µM) was 101% and the viability, T/C (second compound 10 µM, first compound 1 µM) was 54%. For the same molecule, the viability, T/C (second compound 10 µM, first compound 3.16 µM) was 40.9% and the viability, T/C (second compound 10 µM, first compound 10 µM) was 1.34%.
In the case of CC1COCCN1c1cc(-c2ccnn2C)c2ccnc(-c3ccn[nH]3)c2n1 (configuration not stated), the viability, T/C (compound 0.00316 µM) is reported as 104% and 105% and 107%, the viability, T/C (compound 0.01 µM) is reported as 97.6% and 103% and 86.6% and the viability, T/C (compound 0.0316 µM) is reported as 100% and 93.5% and 68%. The viability, T/C (compound 0.1 µM) was 72.3% and 75.9% and 62.1%, the viability, T/C (compound 0.316 µM) was 65.9% and 55.5% and 80.2% and the viability, T/C (compound 1 µM) was 51% and 51.4% and 54.9%. For the same molecule, the IC50 (curve of compound) was over 1000 nM.
Cn1ncnc1C1c2n[nH]c(=O)c3cc(F)cc(c23)NC1c1ccc(F)cc1 (configuration not stated) + Cc1ccccc1N=Nc1ccc(NC(=O)c2ccnn2C)c(C)c1 was tested, and the IC50 [1] was over 100 nM, the IC50 [2] was over 100 nM and the IC50 [3] was over 100 nM. It also gave an IC50 [4] of over 100 nM, an IC50 [5] of over 100 nM and a viability, T/C (second compound 0.1 µM, first compound 0.000316 µM) of 98.1%. The viability, T/C (second compound 0.1 µM, first compound 0.001 µM) was 97.5%, the viability, T/C (second compound 0.1 µM, first compound 0.00316 µM) was 92.7% and the viability, T/C (second compound 0.1 µM, first compound 0.01 µM) was 88.7%. The viability, T/C [26] was 89.2%, the viability, T/C [27] was 79.9% and the viability, T/C (second compound 0.316 µM, first compound 0.000316 µM) was 76.4%. The viability, T/C (second compound 0.316 µM, first compound 0.001 µM) was 85.7%, the viability, T/C (second compound 0.316 µM, first compound 0.00316 µM) was 82.7% and the viability, T/C (second compound 0.316 µM, first compound 0.01 µM) was 83.4%. The viability, T/C [28] was 71.9%, the viability, T/C [29] was 78.3% and the viability, T/C (second compound 1 µM, first compound 0.000316 µM) was 87.5%. It also gave a viability, T/C (second compound 1 µM, first compound 0.001 µM) of 87.1%, a viability, T/C (second compound 1 µM, first compound 0.00316 µM) of 86.1% and a viability, T/C (second compound 1 µM, first compound 0.01 µM) of 78.6%. The viability, T/C [30] was 81%, the viability, T/C [31] was 81.1% and the viability, T/C (second compound 3.16 µM, first compound 0.000316 µM) was 82%. The viability, T/C (second compound 3.16 µM, first compound 0.001 µM) was 80.1%, the viability, T/C (second compound 3.16 µM, first compound 0.00316 µM) was 78.4% and the viability, T/C (second compound 3.16 µM, first compound 0.01 µM) was 87.3%. For the same molecule, the viability, T/C [32] was 84.6%, the viability, T/C [33] was 85.5% and the viability, T/C (second compound 10 µM, first compound 0.000316 µM) was 70.4%. It also gave a viability, T/C (second compound 10 µM, first compound 0.001 µM) of 98.1%, a viability, T/C (second compound 10 µM, first compound 0.00316 µM) of 75.8% and a viability, T/C (second compound 10 µM, first compound 0.01 µM) of 81.8%. The viability, T/C [34] was 63.6% and the viability, T/C [35] was 76%.
Molecule CCc1c2c(nc3ccc(O)cc13)-c1cc3c(c(=O)n1C2)COC(=O)[C@]3(O)CC + Cc1cncc(-c2nc(NCCc3c[nH]c4ccccc34)c3ncn(C(C)C)c3n2)c1 has an IC50 [1] of 270 nM, an IC50 [2] of over 300 nM and an IC50 [3] of over 300 nM. It also gave an IC50 [4] of 265 nM, an IC50 [5] of under 0.949 nM and a viability, T/C (second compound 0.1 µM, first compound 0.000949 µM) of 85.1%. For the same molecule, the viability, T/C (second compound 0.1 µM, first compound 0.003 µM) was 79.9%, the viability, T/C [6] was 79% and the viability, T/C [7] was 71.2%. It also gave a viability, T/C [8] of 61.1%, a viability, T/C [9] of 49% and a viability, T/C (second compound 0.316 µM, first compound 0.000949 µM) of 83.9%. For the same molecule, the viability, T/C (second compound 0.316 µM, first compound 0.003 µM) was 94.5%, the viability, T/C [10] was 77.5% and the viability, T/C [11] was 65.8%. It also gave a viability, T/C [12] of 56.4%, a viability, T/C [13] of 54.3% and a viability, T/C (second compound 1 µM, first compound 0.000949 µM) of 87.6%. It also gave a viability, T/C (second compound 1 µM, first compound 0.003 µM) of 89.3%, a viability, T/C [14] of 84.7% and a viability, T/C [15] of 72.5%. It also gave a viability, T/C [16] of 64.3%, a viability, T/C [17] of 53.9% and a viability, T/C (second compound 3.16 µM, first compound 0.000949 µM) of 91.9%. It also gave a viability, T/C (second compound 3.16 µM, first compound 0.003 µM) of 99.5%, a viability, T/C [18] of 86.1% and a viability, T/C [19] of 88.9%. The viability, T/C [20] was 55.8%, the viability, T/C [21] was 49.4% and the viability, T/C (second compound 10 µM, first compound 0.000949 µM) was 44.6%. The viability, T/C (second compound 10 µM, first compound 0.003 µM) was 48.3%, the viability, T/C [22] was 27.3% and the viability, T/C [23] was 31.3%. It also gave a viability, T/C [24] of 25.5% and a viability, T/C [25] of 27.1%.
